Patent US8952024B2, “Herbicidal pyrimidone derivatives” (E I du Pont de Nemours and Company, priority 2009, dated 2015)

What was measured:
Assay type in all cases: in vivo
[1] = test system: giant foxtail (Setaria faberii); assay: Test A pre-/postemergence plant response
Method in brief: (§1)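 Visual injury rating on a 0–100 scale (0 = no effect, 100 = complete control) was made versus untreated controls after about ten days in the greenhouse. Compounds, formulated in a non-phytotoxic solvent mix containing surfactant, were sprayed preemergence onto loam/sand soil and postemergence onto one- to two-leaf plants.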

[2] = test system: pigweed (Amaranthus retroflexus); assay: Test A pre-/postemergence plant response
Method in brief: as §1

[3] = test system: large crabgrass (Digitaria sanguinalis); assay: Test A pre-/postemergence plant response; details: for Crabgrass, Large plant response rating: visual injury, 0 to 100 scale (0 no effect, 100 complete control), approx. ten days
Method in brief: as §1

[4] = test system: corn (Zea mays); assay: Test A pre-/postemergence plant response; details: for Corn plant response rating: visual injury, 0 to 100 scale (0 no effect, 100 complete control), approx. ten days
Method in brief: as §1

[5] = test system: wheat (Triticum aestivum); assay: Test A pre-/postemergence plant response
Method in brief: as §1

[6] = test system: velvetleaf (Abutilon theophrasti); assay: Test A pre-/postemergence plant response
Method in brief: as §1

[7] = test system: barnyardgrass (Echinochloa crus-galli); assay: Test A pre-/postemergence plant response; details: for Barnyardgrass plant response rating: visual injury, 0 to 100 scale (0 no effect, 100 complete control), approx. ten days
Method in brief: as §1

[8] = test system: morningglory (Ipomoea spp.); assay: Test A pre-/postemergence plant response
Method in brief: as §1

[9] = test system: umbrella sedge (Cyperus difformis); assay: Test B flooded paddy test; details: for Plant response rating, Flood, Sedge, Umbrella: 250 g ai/ha, flooded paddy test, visual rating on 0 to 100 scale (0 no effect, 100 complete control) after 13 to 15 days; for Plant response rating, Sedge, Umbrella: Flood (flooded paddy test), 13 to 15 days; for Sedge, Umbrella plant response rating: Flood, 31 g ai/ha, scale 0 to 100 (0 no effect, 100 complete control)
Method in brief: (§2)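 Flooded-pot test: water raised to 3 cm above soil when treating, compound put in the water, level unchanged thereafter. Plants were at 2 leaves. Readout after 13 to 15 days, visual, relative to controls; 0 signifies no effect and 100 complete control.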

[10] = test system: ducksalad (Heteranthera limosa); assay: Test B flooded paddy test; details: for Plant response rating, Flood, Ducksalad: 250 g ai/ha, flooded paddy test, visual rating on 0 to 100 scale (0 no effect, 100 complete control) after 13 to 15 days; for Plant response rating, Ducksalad: Flood (flooded paddy test), 13 to 15 days; for Ducksalad plant response rating: Flood, 31 g ai/ha, scale 0 to 100 (0 no effect, 100 complete control)
Method in brief: as §2

[11] = test system: rice (Oryza sativa); assay: Test B flooded paddy test; details: for Plant response rating, Flood, Rice: 250 g ai/ha, flooded paddy test, visual rating on 0 to 100 scale (0 no effect, 100 complete control) after 13 to 15 days; for Plant response rating, Rice: Flood (flooded paddy test), 13 to 15 days; for Rice plant response rating: Flood, 31 g ai/ha, scale 0 to 100 (0 no effect, 100 complete control)
Method in brief: as §2

[12] = test system: barnyardgrass (Echinochloa crus-galli); assay: Test B flooded paddy test; details: for Plant response rating, Flood, Barnyardgrass: 250 g ai/ha, flooded paddy test, visual rating on 0 to 100 scale (0 no effect, 100 complete control) after 13 to 15 days; for Plant response rating, Barnyardgrass: Flood (flooded paddy test), 13 to 15 days; for Barnyardgrass plant response rating: Flood, 31 g ai/ha, scale 0 to 100 (0 no effect, 100 complete control)
Method in brief: as §2

[13] = Postemergence, 125 g ai/ha, visual injury, 0 to 100 scale (0 no effect, 100 complete control), approx. ten days
[14] = Postemergence, 500 g ai/ha, visual injury, 0 to 100 scale (0 no effect, 100 complete control), approx. ten days
[15] = Preemergence, 125 g ai/ha, 0 to 100 scale where 0 is no effect and 100 is complete control, approximately ten days
[16] = Preemergence, 500 g ai/ha, 0 to 100 scale, 0 = no effect, 100 = complete control
[17] = Postemergence, 125 g ai/ha, 0 to 100 scale where 0 is no effect and 100 is complete control
[18] = 62 g ai/ha, scale of 0 to 100 where 0 is no effect and 100 is complete control
[19] = 125 g ai/ha, scale 0 to 100, 0 is no effect, 100 is complete control

O=C(C1=C(O)C2CCC(C2)C1=O)c1cnc(-c2cc(F)c(F)c(F)c2)n(C2CCCCC2)c1=O (stereo not drawn) [Compound 251]
Plant response rating, Foxtail, Giant [1, 13]: 50 | Foxtail, Giant plant response rating [1, 14]: 90 | Plant response rating, Foxtail, Giant [1, 15]: 10 | Plant response rating, Foxtail, Giant [1, 16]: 40 | Plant response rating, Pigweed [2, 13]: 70 | Pigweed plant response rating [2, 14]: 80 | Plant response rating, Pigweed [2, 15]: 0 | Plant response rating, Pigweed [2, 16]: 60 | Plant response rating, Crabgrass, Large [3, 17]: 50 | Crabgrass, Large plant response rating ([3]; Postemergence, 500 g ai/ha): 90 | Plant response rating, Crabgrass, Large [3, 15]: 20 | Plant response rating, Crabgrass, Large [3, 16]: 80 | Plant response rating, Corn [4, 17]: 0 | Corn plant response rating ([4]; Postemergence, 500 g ai/ha): 20 | Plant response rating, Corn [4, 15]: 0 | Plant response rating, Corn [4, 16]: 0 | Plant response rating, Wheat [5, 13]: 0 | Wheat plant response rating [5, 14]: 10 | Plant response rating, Wheat [5, 15]: 0 | Plant response rating, Wheat [5, 16]: 0 | Plant response rating, Velvetleaf [6, 13]: 100 | Velvetleaf plant response rating [6, 14]: 100 | Plant response rating, Velvetleaf [6, 15]: 50 | Plant response rating, Velvetleaf [6, 16]: 70 | Plant response rating, Barnyardgrass [7, 17]: 80 | Barnyardgrass plant response rating ([7]; Postemergence, 500 g ai/ha): 100 | Plant response rating, Barnyardgrass [7, 15]: 0 | Plant response rating, Barnyardgrass [7, 16]: 20 | Plant response rating, Morningglory [8, 13]: 100 | Morningglory plant response rating [8, 14]: 100 | Plant response rating, Morningglory [8, 15]: 0 | Plant response rating, Morningglory [8, 16]: 40 | Plant response rating, Flood, Sedge, Umbrella [9]: 75 | Plant response rating, Sedge, Umbrella [9, 18]: 50 | Plant response rating, Sedge, Umbrella [9, 19]: 65 | Sedge, Umbrella plant response rating [9]: 0 | Plant response rating, Flood, Ducksalad [10]: 80 | Plant response rating, Ducksalad [10, 18]: 0 | Plant response rating, Ducksalad [10, 19]: 50 | Ducksalad plant response rating [10]: 0 | Plant response rating, Flood, Rice [11]: 10 | Plant response rating, Rice [11, 18]: 0 | Plant response rating, Rice [11, 19]: 0 | Rice plant response rating [11]: 0 | Plant response rating, Flood, Barnyardgrass [12]: 20 | Plant response rating, Barnyardgrass [12, 18]: 0 | Plant response rating, Barnyardgrass [12, 19]: 0 | Barnyardgrass plant response rating [12]: 0

O=C(C1=C(O)C2CCC(C2)C1=O)c1cnc(-c2cccc(Br)c2)n(C2CCCCC2)c1=O (stereo not drawn) [Compound 252]
Plant response rating, Foxtail, Giant [1, 13]: 40 | Foxtail, Giant plant response rating [1, 14]: 60 | Plant response rating, Foxtail, Giant [1, 15]: 0 | Plant response rating, Foxtail, Giant [1, 16]: 10 | Plant response rating, Pigweed [2, 13]: 70 | Pigweed plant response rating [2, 14]: 90 | Plant response rating, Pigweed [2, 15]: 0 | Plant response rating, Pigweed [2, 16]: 40 | Plant response rating, Crabgrass, Large [3, 17]: 30 | Crabgrass, Large plant response rating ([3]; Postemergence, 500 g ai/ha): 60 | Plant response rating, Crabgrass, Large [3, 15]: 10 | Plant response rating, Crabgrass, Large [3, 16]: 20 | Plant response rating, Corn [4, 17]: 0 | Corn plant response rating ([4]; Postemergence, 500 g ai/ha): 10 | Plant response rating, Corn [4, 15]: 0 | Plant response rating, Corn [4, 16]: 0 | Plant response rating, Wheat [5, 13]: 0 | Wheat plant response rating [5, 14]: 10 | Plant response rating, Wheat [5, 15]: 0 | Plant response rating, Wheat [5, 16]: 0 | Plant response rating, Velvetleaf [6, 13]: 70 | Velvetleaf plant response rating [6, 14]: 90 | Plant response rating, Velvetleaf [6, 15]: 20 | Plant response rating, Velvetleaf [6, 16]: 50 | Plant response rating, Barnyardgrass [7, 17]: 80 | Barnyardgrass plant response rating ([7]; Postemergence, 500 g ai/ha): 90 | Plant response rating, Barnyardgrass [7, 15]: 0 | Plant response rating, Barnyardgrass [7, 16]: 0 | Plant response rating, Morningglory [8, 13]: 80 | Morningglory plant response rating [8, 14]: 100 | Plant response rating, Morningglory [8, 15]: 0 | Plant response rating, Morningglory [8, 16]: 10 | Plant response rating, Flood, Sedge, Umbrella [9]: 0 | Plant response rating, Sedge, Umbrella [9, 18]: 0 | Plant response rating, Flood, Ducksalad [10]: 0 | Plant response rating, Ducksalad [10, 18]: 0 | Plant response rating, Flood, Rice [11]: 0 | Plant response rating, Rice [11, 18]: 0 | Plant response rating, Flood, Barnyardgrass [12]: 0 | Plant response rating, Barnyardgrass [12, 18]: 0

O=C(C1=C(O)C2CCC(C2)C1=O)c1cnc(-c2ccccc2)n(C2CCCCCC2)c1=O (stereo not drawn) [Compound 253]
Plant response rating, Foxtail, Giant [1, 13]: 60 | Foxtail, Giant plant response rating [1, 14]: 100 | Plant response rating, Foxtail, Giant [1, 15]: 20 | Plant response rating, Foxtail, Giant [1, 16]: 70 | Plant response rating, Pigweed [2, 13]: 90 | Pigweed plant response rating [2, 14]: 100 | Plant response rating, Pigweed [2, 15]: 20 | Plant response rating, Pigweed [2, 16]: 80 | Plant response rating, Crabgrass, Large [3, 17]: 80 | Crabgrass, Large plant response rating ([3]; Postemergence, 500 g ai/ha): 100 | Plant response rating, Crabgrass, Large [3, 15]: 30 | Plant response rating, Crabgrass, Large [3, 16]: 80 | Plant response rating, Corn [4, 17]: 10 | Corn plant response rating ([4]; Postemergence, 500 g ai/ha): 40 | Plant response rating, Corn [4, 15]: 0 | Plant response rating, Wheat [5, 13]: 0 | Wheat plant response rating [5, 14]: 20 | Plant response rating, Wheat [5, 15]: 0 | Plant response rating, Wheat [5, 16]: 20 | Plant response rating, Velvetleaf [6, 13]: 100 | Velvetleaf plant response rating [6, 14]: 100 | Plant response rating, Velvetleaf [6, 15]: 50 | Plant response rating, Velvetleaf [6, 16]: 90 | Plant response rating, Barnyardgrass [7, 17]: 100 | Barnyardgrass plant response rating ([7]; Postemergence, 500 g ai/ha): 100 | Plant response rating, Barnyardgrass [7, 15]: 10 | Plant response rating, Barnyardgrass [7, 16]: 20 | Plant response rating, Morningglory [8, 13]: 100 | Morningglory plant response rating [8, 14]: 100 | Plant response rating, Morningglory [8, 15]: 40 | Plant response rating, Morningglory [8, 16]: 70 | Plant response rating, Flood, Sedge, Umbrella [9]: 85 | Plant response rating, Sedge, Umbrella [9, 18]: 65 | Plant response rating, Sedge, Umbrella [9, 19]: 75 | Sedge, Umbrella plant response rating [9]: 60 | Plant response rating, Flood, Ducksalad [10]: 90 | Plant response rating, Ducksalad [10, 18]: 75 | Plant response rating, Ducksalad [10, 19]: 85 | Ducksalad plant response rating [10]: 60 | Plant response rating, Flood, Rice [11]: 20 | Plant response rating, Rice [11, 18]: 0 | Plant response rating, Rice [11, 19]: 0 | Rice plant response rating [11]: 0 | Plant response rating, Flood, Barnyardgrass [12]: 20 | Plant response rating, Barnyardgrass [12, 18]: 0 | Plant response rating, Barnyardgrass [12, 19]: 0 | Barnyardgrass plant response rating [12]: 0
